From paper PMC10568103, “Quantification of soluble epoxide hydrolase inhibitors in experimental and clinical samples using the nanobody-based ELISA” (Journal of Pharmaceutical Analysis, 2023)

Assays:
Nb-TP02 = test: Nb-based indirect competitive ELISA for TPPU (TPPU immunoassay); type: binding, llama; settings: for TPPU immunoassay CR: CR% = IC50 (TPPU)/IC50 (analog) × 100%; for TPPU immunoassay IC50: Nb-TP02, cAg 6-OVA
From the text: The limit of detection (LOD) of Nb-based ELISAs for detecting the concentrations of the sEHI was defined as the concentration of sEHI that provided a 10% inhibition rate (IC10 value). […]

[1] = LC-MS analysis of urine samples from human clinical trial with EC5026; type: in vivo
Protocol: To assess the feasibility of Nb-based ELISAs for EC5026 and TPPU, the human urine and FBS were used as the matrix for precision and accuracy determination. The precision is shown as coefficient variation (CV%). The accuracy is expressed by the recovery, and the recovery is calculated as (Found concentration/Spiked concentration) × 100%. The standard solutions of EC5026 or TPPU were spiked blindly into human urine and FBS to obtain final concentrations of 1.25, 5 and 20 ng/mL, respectively. The experimental urine samples were collected from participants in the human clinical trial for EC5026, and the supernatant was collected by centrifugation (10,000 g, 5 min, 4 °C). The processed clinical samples were divided into two aliquots. One was diluted 10 times and then was detected by the Nb-based ELISA, and the other was for the LC-MS analysis directly in a bind fashion by different scientists.
The urine samples were analyzed by an LC-MS/MS method using Waters (Milford, MA, USA) Acquity UPLC system with Waters Xevo TQS tandem mass spectrometer. The separation was implemented on a Phenomenex Kinetex 150 x 2 mm C18 column. The mobile phases are 0.1 % of acetic acid in water as phase A, 0.1% of acetic acid in methanol as phase B. The gradient of the separation started from 50% of B and increased to 63% of B at 3.6 min then ramped to 95% at 4 min. The flow rate was 0.4 mL/min. The mass spectrometer was operated with negative electrospray ionization. The MRM transitions are 404.2/194 for EC5026, 420.2/194 for both M1 and M2. The source parameters of mass spectrometer are: capillary voltage: –3 KV, desolvation temperature: 300°C, desolvation gas flow: 800 L/hr; cone: 150 L/min; nebulizer: 7 bar.

Nb-EC03 = test: Nb-based indirect competitive ELISA for EC5026 (EC5026 immunoassay); settings: for EC5026 immunoassay IC50: Nb-EC03, cAg 2-BSA; for EC5026 immunoassay CR: CR% = IC50 (EC5026)/IC50 (analog) × 100%
Protocol: (d) 100 μL of HRP-anti-HA was introduced, incubated and shaken for another 60 min; (e) after the final washing step, 100 μL of the TMB substrate solution was added and incubated for 15 min, followed by being stopped by 50 μL of H2SO4 solution (1.0 M). […] The linear range was established between the IC20 value and the IC80 value.

human sEH [2] = target: T1, human sEH (Homo sapiens, UniProt P34913); test: Inhibition of human sEH in vitro (potency unit definition, assay of Jones et al.); type: biochemical; settings: 1 nM human sEH, read-out: 1 Potency unit: concentration permitting the inhibition of 50% of 1 nM of the human sEH
T1 sequence (P34913 1-555): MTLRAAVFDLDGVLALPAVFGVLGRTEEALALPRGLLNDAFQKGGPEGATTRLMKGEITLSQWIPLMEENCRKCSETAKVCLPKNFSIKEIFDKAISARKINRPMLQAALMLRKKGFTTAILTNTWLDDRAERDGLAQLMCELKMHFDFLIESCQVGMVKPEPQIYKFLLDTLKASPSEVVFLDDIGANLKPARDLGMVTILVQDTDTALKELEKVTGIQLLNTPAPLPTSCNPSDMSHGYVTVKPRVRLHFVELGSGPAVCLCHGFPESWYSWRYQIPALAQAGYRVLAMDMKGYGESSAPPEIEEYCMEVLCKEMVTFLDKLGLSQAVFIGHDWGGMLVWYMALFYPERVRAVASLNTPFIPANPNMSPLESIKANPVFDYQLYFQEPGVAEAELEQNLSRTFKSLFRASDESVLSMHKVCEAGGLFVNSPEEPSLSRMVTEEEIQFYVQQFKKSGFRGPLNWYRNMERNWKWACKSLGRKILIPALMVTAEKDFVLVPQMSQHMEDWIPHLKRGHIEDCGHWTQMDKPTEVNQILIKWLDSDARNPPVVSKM

human sEH [3] = target: T1, human sEH; test: Activity on the target sEH enzyme; type: biochemical
[4] = Subject 1, 0–8 h post exposure to EC5026
[5] = Subject 1, 8–16 h post exposure to EC5026
[6] = Subject 1, 16–24 h post exposure to EC5026
[7] = Subject 1, 24–32 h post exposure to EC5026
[8] = Subject 1, 32–40 h post exposure to EC5026
[9] = Subject 1, 40–48 h post exposure to EC5026
[10] = Subject 2, 0–8 h post exposure to EC5026
[11] = Subject 2, 8–16 h post exposure to EC5026
[12] = Subject 2, 16–24 h post exposure to EC5026
[13] = Subject 2, 24–32 h post exposure to EC5026
[14] = Subject 2, 32–40 h post exposure to EC5026
[15] = Subject 2, 40–48 h post exposure to EC5026
[16] = Subject 3, 0–8 h post exposure to EC5026
[17] = Subject 3, 8–16 h post exposure to EC5026
[18] = Subject 3, 16–24 h post exposure to EC5026
[19] = Subject 3, 24–32 h post exposure to EC5026
[20] = Subject 3, 32–40 h post exposure to EC5026
[21] = Subject 3, 40–48 h post exposure to EC5026

C[C@H](O)[C@H](C)C(=O)N1CCC(NC(=O)Nc2ccc(OC(F)(F)F)c(F)c2)CC1 [M2, 1-(3-fluoro-4-(trifluoromethoxy)phenyl)-3-(1-((2S,3S)-3-hydroxy-2-methylbutanoyl)piperidin-4-yl)urea]
TPPU immunoassay CR (Nb-TP02): 59.4% | TPPU immunoassay IC50 (Nb-TP02): 5.01 ng/mL | [M2] LC-MS analysis [1, 4]: 28.66 ng/mL | [M2] LC-MS analysis [1, 5]: 61.59 ng/mL | [M2] LC-MS analysis [1, 6]: 51.04 ng/mL | [M2] LC-MS analysis [1, 7]: 67.21 ng/mL | [M2] LC-MS analysis [1, 8]: 47.44 ng/mL | [M2] LC-MS analysis [1, 9]: 43.94 ng/mL | [M2] LC-MS analysis [1, 10]: 12.99 ng/mL | [M2] LC-MS analysis [1, 11]: 53.46 ng/mL | [M2] LC-MS analysis [1, 12]: 59.34 ng/mL | [M2] LC-MS analysis [1, 13]: 45.69 ng/mL | [M2] LC-MS analysis [1, 14]: 75.89 ng/mL | [M2] LC-MS analysis [1, 15]: 52.38 ng/mL | [M2] LC-MS analysis [1, 16]: 14.93 ng/mL | [M2] LC-MS analysis [1, 17]: 50.31 ng/mL | [M2] LC-MS analysis [1, 18]: 106.12 ng/mL | [M2] LC-MS analysis [1, 19]: 44.20 ng/mL | [M2] LC-MS analysis [1, 20]: 103.57 ng/mL | [M2] LC-MS analysis [1, 21]: 158.70 ng/mL | EC5026 immunoassay IC50 (Nb-EC03): 1.38 ng/mL | IC50 (human sEH [2]): 0.0961 nM

C[C@H](C(=O)N1CCC(NC(=O)Nc2ccc(OC(F)(F)F)c(F)c2)CC1)[C@@H](C)O [M1, 1-(3-fluoro-4-(trifluoromethoxy)phenyl)-3-(1-((2S,3R)-3-hydroxy-2-methylbutanoyl)piperidin-4-yl)urea]
TPPU immunoassay CR (Nb-TP02): 72.7% | TPPU immunoassay IC50 (Nb-TP02): 4.10 ng/mL | [M1] LC-MS analysis [1, 4]: 24.22 ng/mL | [M1] LC-MS analysis [1, 5]: 44.30 ng/mL | [M1] LC-MS analysis [1, 6]: 35.82 ng/mL | [M1] LC-MS analysis [1, 7]: 48.89 ng/mL | [M1] LC-MS analysis [1, 8]: 36.78 ng/mL | [M1] LC-MS analysis [1, 9]: 33.49 ng/mL | [M1] LC-MS analysis [1, 10]: 12.48 ng/mL | [M1] LC-MS analysis [1, 11]: 38.41 ng/mL | [M1] LC-MS analysis [1, 12]: 43.37 ng/mL | [M1] LC-MS analysis [1, 13]: 35.76 ng/mL | [M1] LC-MS analysis [1, 14]: 55.70 ng/mL | [M1] LC-MS analysis [1, 15]: 40.74 ng/mL | [M1] LC-MS analysis [1, 16]: 13.41 ng/mL | [M1] LC-MS analysis [1, 17]: 36.41 ng/mL | [M1] LC-MS analysis [1, 18]: 67.03 ng/mL | [M1] LC-MS analysis [1, 19]: 31.25 ng/mL | [M1] LC-MS analysis [1, 20]: 67.62 ng/mL | [M1] LC-MS analysis [1, 21]: 98.28 ng/mL | EC5026 immunoassay IC50 (Nb-EC03): 1.47 ng/mL | IC50 (human sEH [2]): 0.0961 nM

O=C(Nc1ccc(OC(F)(F)F)c(F)c1)NC1CCNCC1 [Compound 11, 1-(3-fluoro-4-(trifluoromethoxy)phenyl)-3-(piperidin-4-yl)urea]
TPPU immunoassay CR (Nb-TP02): 33.4% | TPPU immunoassay IC50 (Nb-TP02): 8.91 ng/mL | EC5026 immunoassay CR (Nb-EC03): 34.0% | EC5026 immunoassay IC50 (Nb-EC03): 4.23 ng/mL

Nc1ccc(OC(F)(F)F)cc1 [Compound 15, 4-(trifluoromethoxy)aniline]
TPPU immunoassay CR (Nb-TP02): <0.01% | TPPU immunoassay IC50 (Nb-TP02): >300000 ng/mL | IC50 (human sEH [3]): > 50000 nM | EC5026 immunoassay CR (Nb-EC03): <0.01% | EC5026 immunoassay IC50 (Nb-EC03): >150000 ng/mL

Nc1ccc(OC(F)(F)F)c(F)c1 [Compound 14, 3-fluoro-4-(trifluoromethoxy)aniline]
TPPU immunoassay CR (Nb-TP02): <0.01% | TPPU immunoassay IC50 (Nb-TP02): >300000 ng/mL | IC50 (human sEH [3]): > 50000 nM | EC5026 immunoassay CR (Nb-EC03): <0.01% | EC5026 immunoassay IC50 (Nb-EC03): >150000 ng/mL

CCC(=O)N1CCC(NC(=O)Nc2ccc(OC(F)(F)F)cc2)CC1 [TPPU, 1-trifluoromethoxyphenyl-3-(1-propionylpiperidin-4-yl)urea]
TPPU immunoassay CR (Nb-TP02): 100% | Curve parameters IC50 (Nb-TP02; Nb-TP02, cAg 4-BSA (homologous)): 2.53 ng/mL | Curve parameters IC50 (Nb-TP02; Nb-TP02, cAg 4-OVA (homologous)): 2.76 ng/mL | Curve parameters IC50 (Nb-TP02; Nb-TP02, cAg 5-BSA (homologous)): 4.53 ng/mL | Curve parameters IC50 (Nb-TP02; Nb-TP02, cAg 5-OVA (homologous)): 2.44 ng/mL | Curve parameters IC50 (Nb-TP02; Nb-TP02, cAg 6-BSA (heterologous)): 2.40 ng/mL | TPPU immunoassay IC50 (Nb-TP02): 2.98 ng/mL | EC5026 immunoassay CR (Nb-EC03): 52.9% | EC5026 immunoassay IC50 (Nb-EC03): 2.72 ng/mL

O=C(Nc1ccc(OC(F)(F)F)cc1)NC1CCNCC1 [Compound 12]
TPPU immunoassay CR (Nb-TP02): 25.6% | TPPU immunoassay IC50 (Nb-TP02): 11.66 ng/mL

CC[C@H](C)C(=O)N1CCC(NC(=O)Nc2ccc(OC(F)(F)F)c(F)c2)CC1 [EC5026]
TPPU immunoassay CR (Nb-TP02): 86.6% | TPPU immunoassay IC50 (Nb-TP02): 3.44 ng/mL | [EC5026] LC-MS analysis [1, 4]: 2.96 ng/mL | [EC5026] LC-MS analysis [1, 5]: 1.41 ng/mL | [EC5026] LC-MS analysis [1, 6]: 1.81 ng/mL | [EC5026] LC-MS analysis [1, 7]: 1.43 ng/mL | [EC5026] LC-MS analysis [1, 8]: 1.63 ng/mL | [EC5026] LC-MS analysis [1, 9]: 1.24 ng/mL | [EC5026] LC-MS analysis [1, 10]: 3.01 ng/mL | [EC5026] LC-MS analysis [1, 11]: 5.57 ng/mL | [EC5026] LC-MS analysis [1, 12]: 4.86 ng/mL | [EC5026] LC-MS analysis [1, 13]: 2.84 ng/mL | [EC5026] LC-MS analysis [1, 14]: 3.46 ng/mL | [EC5026] LC-MS analysis [1, 15]: 2.01 ng/mL | [EC5026] LC-MS analysis [1, 16]: 6.53 ng/mL | [EC5026] LC-MS analysis [1, 17]: 4.69 ng/mL | [EC5026] LC-MS analysis [1, 18]: 2.59 ng/mL | [EC5026] LC-MS analysis [1, 19]: 2.98 ng/mL | [EC5026] LC-MS analysis [1, 20]: 2.06 ng/mL | [EC5026] LC-MS analysis [1, 21]: 1.18 ng/mL | EC5026 immunoassay CR (Nb-EC03): 100% | Curve parameters IC50 (Nb-EC03; Nb-EC03, cAg 1-BSA (homologous)): 7.32 ng/mL | Curve parameters IC50 (Nb-EC03; Nb-EC03, cAg 1-OVA (homologous)): 5.68 ng/mL | EC5026 immunoassay IC50 (Nb-EC03): 1.44 ng/mL | Curve parameters IC50 (Nb-EC03; Nb-EC03, cAg 2-OVA (homologous)): 1.48 ng/mL | Curve parameters IC50 (Nb-EC03; Nb-EC03, cAg 3-BSA (heterologous)): 11.45 ng/mL | Curve parameters IC50 (Nb-EC03; Nb-EC03, cAg 3-OVA (heterologous)): 12.49 ng/mL
